Measured values reported in publication PMC12040169 (PLOS Biology, 2025).

Test: in vitro
Conditions: human, hela cells, % viability

| SMILES | viability at 28.5 h, 10 µM |
| --- | --- |
| O=C(Cn1ccc(=O)[nH]c1=O)NCc1cccnc1OCC(F)(F)F [CBK304565] | 90.5% |
| COc1ccc([C@@]23CC[C@@H](NC(=O)Nc4ccnc5ccccc45)C[C@@H]2N(C)CC3)cc1OC [CBK045699] | 100% |
| C=CCNc1nccnc1-c1cc(OC)c(OC)c(OC)c1 [CBK036872] | 102% |
| COC(=O)c1sccc1N1C(=O)CSCC1=O [CBK021934] | 103% |
| COc1ccc(NC(=O)NC(=O)c2ccc(Cl)cc2)c(OC)c1 [CBK269462] | 93.1% |
| O=S(=O)(CCN1CCC(Cc2ccccc2)CC1)c1ccccc1 [CBK126386] | 94.9% |
| CN(CCOC(=O)c1cccnc1)C(C)(C)C [CBK027543C] | 88.8% |
| CC(C)(c1ccccc1)c1ccc(OCCOc2ccc(/C=C3\SC(=S)NC3=O)cc2)cc1 [CBK264378] | 91% |
| COc1ccc(NC(=O)CSc2cnn[nH]2)c(OC)c1 [CBK269969] | 76.7% |
| Cc1[nH]c2ccc(F)cc2c1CC(=O)N(C)CCN(C)C [CBK282726] | 84.1% |
| CC(C)n1nnnc1SCCC(=O)N1CCN(c2ccc(F)cc2)CC1 [CBK304602] | 95.5% |
| Clc1ccccc1-c1nccnc1NCCc1ccncc1 [CBK038055] | 98.1% |
| CN(CCN1CCOCC1)c1nc2c(c(=O)[nH]1)Cc1ccccc1OC2 [CBK306783] | 75.4% |
| COc1cccc2cc(C(=O)NCCc3ccc(O)cc3)oc12 [CBK149802] | 93.9% |
| O=C1NN(c2ccc(Br)cc2)C(=O)/C1=C\c1ccc(-c2ccc3c(c2)C(=O)NC3=O)o1 [CBK262968] | 111% |
| O=C(O)c1ccccc1NS(=O)(=O)/C=C/c1ccccc1 [CBK042363] | 102% |
| COc1ccc(-c2cncc(N[C@@H](CO)C(C)C)n2)cc1 [CBK037941] | 82.8% |
| O=C(c1ccccc1-c1ccccc1)N1CCn2cnnc2C1 [CBK283789] | 85.2% |
| CC(C)(C)OC(=O)NC1CCC(NCc2ccncc2)CC1 (stereo not drawn) [CBK056688] | 98.8% |
| CC1(CNC(=O)c2cc(-c3cccc(F)c3)no2)COC1 [CBK281751] | 87.7% |
| CN(C)Cc1ccccc1Cn1cncc1-c1cnn(C)c1 [CBK281764] | 99.5% |
| Cc1scnc1CN1CCn2nc(C(O)Cc3ccccc3)cc2C1 (stereo not drawn) [CBK307612] | 90.9% |
| O=C(Cc1ccccc1)N/N=C/C1CC2CC1CC2C(F)(F)F (stereo not drawn) [CBK021488] | 93% |

| SMILES | viability at 28.5 h, 10 µM |
| --- | --- |
| Cc1cc(C2CCCCCN2C(=O)c2cccc(F)c2)on1 (stereo not drawn) [CBK285448] | 96.8% |
| OCc1ccccc1-c1cncc(N2CCN(c3ccncc3)CC2)n1 [CBK065208] | 113% |
| Clc1ccc(-c2csc(NCc3ccco3)n2)cc1 [CBK058168] | 109% |
| COc1ccc([C@@]23CCC(N)C[C@@H]2N(C)CC3)cc1OC (stereo partly drawn) [CBK003576] | 114% |
| Cc1ccnc(NCn2nnc3ccccc32)c1 [CBK261116] | 110% |
| CN1C(c2ccccc2)=NO[C@]1(C)c1ccccc1 [CBK027170] | 90% |
| COc1cc(/C=N/c2ccc(O)c(-c3nc4ccccc4s3)c2)ccc1OC(=O)c1ccc(Cl)cc1Cl [CBK261243] | 101% |
| Cc1cccn2c(CN3CCCC(O)C3)c(C(=O)N3CCOCC3)nc12 (stereo not drawn) [CBK306545] | 72.5% |
| COc1ccccc1OCC(=O)Nc1cnc(-c2cccc(C)c2)c(-c2cccnc2)n1 [CBK037112] | 84.1% |
| CCc1cc(=O)oc2cc(OCC(=O)O)c(Cl)cc12 [CBK265182] | 93.9% |
| O=C(Nc1ccc(F)cc1)c1ccccc1NS(=O)(=O)c1cc(Br)c(Cl)s1 [CBK045405] | 92.8% |
| CC(=O)N1CCCc2cc(C(O)CN3CCCC(C)C3)ccc21 (stereo not drawn) [CBK282142] | 84.1% |
| c1ccc(C(Oc2nccnc2-c2ccsc2)c2ccccc2)cc1 [CBK106765] | 103% |
| CCNC(=O)C1(Cc2ccc(-c3ccncc3)cc2)CCN(C(=O)CC2CCCCC2)CC1 [CBK285785] | 89.8% |
| Cn1c(N2CCCC(C(=O)NCC3CC3)C2)nc2ccccc21 (stereo not drawn) [CBK283987] | 92.6% |
| CC(C)(C)NC(=O)Cn1cncc1-c1ccc2c(c1)CC(C)(C)O2 [CBK281980] | 113% |
| CC(NC(=O)/C(=C\c1ccccc1)NC(=O)c1ccc(Br)o1)C(=O)O (stereo not drawn) [CBK264934] | 107% |
| COc1cc2c(=O)n(C)c3nncn3c2cc1OC [CBK288182] | 98.1% |
| O=[N+]([O-])c1ccc2c(c1)oc1ccc(S(=O)(=O)N3CCCC3)cc12 [CBK268512] | 107% |
| CCCOC(=O)N(O)c1ccc(Cl)c(Cl)c1 [CBK288400] | 94.4% |
| COc1cccc2c1CCN=C2C[C@H]1CN(C(=O)C2CC2)CC[C@H]1CC(=O)O [CBK289164] | 94.5% |
| CCc1nc2ccc(NC(=O)c3csc(C(C)=O)c3)cc2[nH]1 [CBK282538] | 114% |
| CCNS(=O)(=O)c1ccc(NC(=O)c2cc(-c3ccccn3)nc3c(C)c(C)ccc23)cc1 [CBK267733] | 97.3% |

| SMILES | viability at 28.5 h, 10 µM |
| --- | --- |
| CN(C)c1ccc(/C=N/NC(=O)CSc2nnc(-c3ccccc3)n2-c2ccccc2)cc1 [CBK262263] | 90.2% |
| CSCCC(NC(=O)c1c(C)oc2c1CCCC2)C(=O)O (stereo not drawn) [CBK264029] | 82% |
| CS(=O)(=O)N1CCc2cc(S(=O)(=O)NCCc3c[nH]c4ccccc34)ccc21 [CBK268487] | 101% |
| COCCNC(=O)CSc1cc(Cl)nc(Cl)c1 [CBK020796] | 88.3% |
| CN1CC(c2ccccc2)CC2(CCN(CCCn3cnnn3)CC2)C1 (stereo not drawn) [CBK306522] | 95% |
| CC1CC1c1nnc(C2(c3ccc(Br)cc3)CCOCC2)o1 (stereo not drawn) [CBK304712] | 94.1% |
| O=C(c1ncoc1-c1ccc(F)cc1)N1CCN2CCCCC2C1 (stereo not drawn) [CBK282400] | 96.2% |
| c1ccc(CCNc2nccnc2-c2cccs2)nc1 [CBK036776] | 97.7% |
| Cc1noc(C)c1CN1CCN(CC(CC(=O)Nc2ccc(F)cc2)C(=O)O)CC1 (stereo not drawn) [CBK286821] | 90.5% |
| O=C(CCCn1cccn1)N1CCCN(Cc2ccc(F)cc2)CC1 [CBK304641] | 99.7% |
| Cc1cc2ncn(CC(=O)N3CCc4ccccc43)c2cc1C [CBK200270] | 114% |
| COc1cc(F)ccc1-c1nc(N)cc2cccnc12 [CBK081176] | 88.9% |
| Oc1cc(C(F)(F)F)nc(SCc2ccc(Cl)cc2)n1 [CBK002305] | 106% |
| Cc1ccc(NC(=O)CN2C(=O)S/C(=C\c3ccc4c(c3)n(C)c(=O)n4C)C2=O)cc1 [CBK264501] | 112% |
| Cc1nc2c(OCC(=O)c3ccc(Cl)cc3Cl)cccn2c1N(C)CC1CC1 [CBK147294] | 105% |
| CC(CN1CCCCC1)OC(=O)COc1ccc(Br)cc1 (stereo not drawn) [CBK265326C] | 96.9% |
| S=c1[nH]cc(-c2ccc(Br)cc2)o1 [CBK288498] | 92.8% |
| CCOc1cc([N+](=O)[O-])cc(C=O)c1OC(C)C(=O)O (stereo not drawn) [CBK264642] | 89.6% |
| O=C(/C=C/c1cccc([N+](=O)[O-])c1)NC(=S)Nc1ccc(-c2nc3ncccc3o2)cc1 [CBK264391] | 99.2% |
| CCOc1ccc(Nc2nc(-c3ccc(F)cc3)c(CC(=O)O)s2)cc1 [CBK296064] | 99.3% |
| O=C1NC(Nc2ccc(SCCN3CCOCC3)cc2)c2ccccc21 (stereo not drawn) [CBK010123] | 93.6% |
| CCOC(=O)C(CNC(=O)c1cnc(C)c(Br)c1Cl)Cc1ccccc1 (stereo not drawn) [CBK305247] | 99.6% |
| CCC(C(=O)NCCCN1CCOCC1)c1ccccc1 (stereo not drawn) [CBK265103] | 116% |

| SMILES | viability at 28.5 h, 10 µM |
| --- | --- |
| O=C1C(=CNCc2ccco2)C(=O)c2ccccc21 [CBK262688] | 115% |
| N#Cc1ccccc1CSc1ncn[nH]1 [CBK027835] | 95.1% |
| CC(=O)N1C[C@@H]2C[C@H](C1)c1ccc(NC(=O)c3ccc(C#N)cc3)c(=O)n1C2 [CBK289202] | 90.6% |
| O=S(=O)(NCCNc1ncc(C(F)(F)F)cc1Cl)C(F)(F)F [CBK008366] | 109% |
| Cc1cccc(C(=O)Nc2ncn(CC(=O)N3CCCCCC3)n2)n1 [CBK304954] | 86.6% |
| CC(=O)NCC(=O)N1CCC2(C/C=C/CNC(=O)c3ccccc3OCCNC2=O)CC1 [CBK292006] | 97.4% |
| O=C(N[C@H]1CCN2C(=O)N(c3cccc4nsnc34)C(=O)[C@@H]2C1)c1cccs1 [CBK289543] | 87% |
| O=C(CN1CCC[C@@H]1CN1CCCC1)Nc1ncccn1 [CBK149107] | 103% |
| COc1ncccc1C(=O)N1CCN(c2ccccc2)CC1 [CBK200166] | 103% |
| c1cnc2[nH]c(C3CCOCC3)c(CN3CCSCC3)c2c1 [CBK284688] | 89.5% |
| CS(=O)(=O)N1CC2(CCN(CCc3ccccc3)CC2)c2ccccc21 [CBK084015] | 88.3% |
| NC(=O)C1(N2CCCCC2)CCN(CC(=O)Nc2ccc(Oc3ccccc3)cc2)CC1 [CBK265774] | 107% |
| CN(C)C(=O)c1cc(-c2ccco2)cnc1NS(C)(=O)=O [CBK076490] | 116% |
| C=CCN1C(=O)CC2(C1=O)C(=O)N(C)c1ccc(Cl)cc12 (stereo not drawn) [CBK075242] | 110% |
| O=C(O)CCc1ccc(-c2cccs2)n1-c1ccc(C(=O)O)cc1 [CBK266016] | 90.9% |
| CCOc1ccc(CN2CCN(C(=O)c3cccc(C#N)c3)CC2)cc1 [CBK304527] | 93.5% |
| CCc1nnc(NC(=O)CSc2ncnc3c2oc2ccccc23)s1 [CBK287392] | 90.7% |
| c1ccc(C(CCN2CCC[C@@H]2CN2CCCC2)c2ccccc2)cc1 [CBK149109] | 89.7% |
| COc1cc(CN2CCN(Cc3ccco3)CC2)cc(OC)c1OC [CBK074520G] | 88.2% |
| O=S(=O)(NCCCn1ccnc1)c1cccs1 [CBK269912] | 95.1% |
| COC(=O)C1=C(C)N(CCc2ccc(OC)c(OC)c2)C(=O)/C1=C\c1ccc(O)cc1 [CBK263722] | 89.6% |
